# In patent publication US5352667A, “Non-peptidic surrogates of the Arg-Gly-Asp sequence and pharmaceutical compositions comprising them” (priority 1991, dated 1994):
# “Also recorded” adds a separate entry of the source.
# Experiments:
# [1] = tested on: CD4^+ T cell adhesion to FN; experiment: Inhibition of activated CD4+ T cell adhesion to FN; format: cell-based, human
# Experimental: To examine the adhesive properties of the T cells, 1 μg/50 μl/well of either fibronectin (FN) (Sigma), the 120 kD cell attachment fragment of FN (Telios Pharm. Inc. San Diego, CA), or laminin (LN) (Sigma), were added to 96-flat bottom microtiter-wells for 12 h. Unbound proteins were then washed away and remaining binding sites were blocked with 0.1% bovine serum albumin (BSA) added to the wells for 2 h and washed. CD4+T cells were purified from peripheral blood mononuclear leukocytes obtained from healthy human donors. The mononuclear cells were isolated using a Ficoll gradient, washed and incubated in RPMI supplemented with 10% fetal calf serum (FCS) and antibiotics in petri dishes at 37° C. humidified CO2 incubator. After 2 h, the non-adherent cells were isolated and applied on nylon-wool columns (1.5 h). CD4^+ T cells were then negatively selected by exposure of the cells to a cocktail of anti-CD8, CD19, and CD14 monoclonal antibodies (mAb) conjugated to magnetic-beads (Advanced Magnetics, MA). Unbound cells were recovered and their phenotype was examined. Purity of the CD4^+ T cells was always greater than 92% as determined by FACScan.
# The purified CD4^+ T cells were radioactively labeled with ^51 [Cr](New England Nuclear) in RPMI +20% FCS for 2 h and washed. The cells were counted and seeded (0.2×10^5 cells) on the precoated microtiter wells in the presence or the absence of the various inhibitors. Coating was made either with FN, the 120 kD cell-attachment fragment of FN or with control adhesive protein laminin (LN). The inhibitors were various surrogates according to the invention, other test molecules or mAb. After 30 min incubation (in […] CO2 -- humidified incubator) the T cells were activated by 10 ng/ml phorbol myristate acetate (PMA) and the percent of T cells attached to the protein substrates was measured. Unbound cells were washed away after 20-30 min, the bound cells were lysed and their radioactivity was measured using radioactive counter. The amount of the radioactivity of the cell lysates represent the matrix-adherent cells and percent binding was calculated in comparison to the total radioactivity added to the wells. Activated T cell adhesion to control wells or to wells coated with BSA was always 2-5%; the level of adhesion of the non-activated T cells was always below 5%. Where indicated, 1/200 diluted mAb anti-CD29 (anti-β1 mAb Serotec, GB), or 1/400 diluted anti-VLA5 (the β1α5 FN-integrin receptor) mAb (Telios Pharm. Inc. San Diego), or 0.2 mM of RGD, GRGDSPK or GRGESP peptides (Sigma) were used. […] The results shown in Tables 1A, 1B and 1C represent data obtained from several experiments that produced essentially similar results.
# In a second series of experiments, FN was used in the adhesion assay carried out with the RGD surrogates NS-8, NS-11 and NS-15 in comparison to RGDS peptide.
# In a third series of experiments, FN was used in the adhesion assay with the surrogates SF-6,5 and NS-11 and compared to the peptide GRGDSP.
# trypsin = experiment: Treatment with trypsin (HPLC monitoring of hydrolysis); format: in vitro ADME; conditions: 0.25% trypsin, 37° C., HPLC at 220 nm, aliquots 5, 30, 60 min
# Experimental: Compound SF-6,5 and the GRGDS peptide (50 μg in 100 μl PBS) were incubated at 37° C. and exposed to 0.25% trypsin (Gibco; 50μl in modified Puck's buffer). Aliquots were taken after 5, 30 and 60 min and monitored by HPLC at 220 nm.
smiles,measurement,setting,value
"N=C(N)NCCCCCC(=O)NCCCCC(=O)O [SF-6,5, 6-aza-7-oxo-12-quanidino-dodecanoic acid]",% Adhesion of activated CD4^+ T cell to FN: (% inhibition),[1]; Conc. 25 μg. ml,10%
same,% Adhesion of activated CD4^+ T cell to FN: (% inhibition),[1]; Conc. 50 μg. ml,25%
same,% Adhesion of activated CD4^+ T cell to FN: (% inhibition),[1]; Conc. 100 μg. ml,38%
same,% Adhesion of activated CD4^+ T cell to FN: (% inhibition),[1]; Conc. 200 μg. ml,55%
same,Stability to trypsin,trypsin,intact after 60 min; also recorded: completely resistant to trypsin-induced hydrolysis
